Each structure is given as a SMILES string.

This passage reports ED50 and IC50 results from patent US5807889A, “Aminomethylindans, -benzofuranes and -benzothiophenes” (H. Lundbeck A/S, priority 1992, dated 1998).

The target of assay [1] is T1, 5-HT1A receptors (Rattus norvegicus, UniProt P19327).
T1 sequence (P19327 1-422): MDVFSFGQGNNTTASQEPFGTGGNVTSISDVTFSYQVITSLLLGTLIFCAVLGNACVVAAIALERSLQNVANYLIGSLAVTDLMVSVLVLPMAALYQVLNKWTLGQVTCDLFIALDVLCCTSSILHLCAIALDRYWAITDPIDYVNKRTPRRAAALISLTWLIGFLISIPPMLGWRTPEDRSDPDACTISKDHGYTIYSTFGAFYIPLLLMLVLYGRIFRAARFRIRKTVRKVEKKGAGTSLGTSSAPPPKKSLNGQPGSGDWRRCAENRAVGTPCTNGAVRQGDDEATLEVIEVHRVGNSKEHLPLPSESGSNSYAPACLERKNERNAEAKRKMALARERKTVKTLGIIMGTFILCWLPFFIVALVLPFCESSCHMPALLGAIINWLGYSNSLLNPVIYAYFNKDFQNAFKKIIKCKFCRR
Nature of the assay: 8-OH DPAT cue agonism in rats (drug discrimination). In kind it is in vivo, male Wistar rats. Details: agonist effects of a test compound on 5-HT1A receptors in vivo; from tissue; host or cells: living male Wistar rats (endogenous receptor, in vivo). As to conditions: sc, read-out: 8-OH DPAT Cue Agonism ED50, rats, s.c., usually 30 or 45 min before test. On the procedure: 8-OH DPAT Cue Agonisme in Rats
This test model is used to determine the agonist effects of a test compound on 5-HT1A receptors in vivo. A related method is described by Tricklebank, M. D., et al, Eur. J. Pharmacol., 1987, 133, 47-56; Arnt, J. Pharmacology & Toxicology, 1989, 64, 165.
Male Wistar rats are trained to discriminate between 8-OH-DPAT (0.4 mg/kg, i.p., 15 min pretreatment) and physiological saline in operant chambers equipped with two response levers. Between the levers a dipper is placed, where water rewards (0.1 ml) are presented. The rats are water deprived for at least 24 h and work in a fixed ratio (FR) schedule (final FR=32).
Following 8-OH-DPAT administration responding is reinforced only on a designated (drug) lever, whereas responding on the opposite lever has no consequences. Following saline administration responding is reinforced on the lever opposite to the drug lever. Drug and saline trials alternate randomly between days. The level of s discrimination occuracy is expressed as the per cent drug responses and is calculated as the number of correct responses ×100 divided by the sum of the correct and incorrect responses before the first reward. The time to the first reward is also recorded as a measure of reaction time. When stable occuracy (mean correst responding=90%; individual rats at least 75% correct responding) is obtained test sessions are included between training days. Test compound is injected s.c. usually 30 min or 45 min, respectively, before beginning of the test. The test trial is terminated when a total of 32 responses are made on either lever or when 20 min have elapsed. No reward is given and the rats have free access to water for 20-30 min after the test. The effects are expressed as per cent drug responding. Only results from rats making at least 10 responses on one lever are included in data analysis. Furthermore, only test sessions in which at least half of the rats respond are included.
The per cent inhibition of drug response obtained for each dose of test compound is used to calculate ED50 values by log-probit analysis.

The target of assay [2] is T1, 5-HT1A receptors. Nature of the assay: Inhibition of 3H-8-OH-DPAT binding to serotonin 5-HT1A receptors in rat brain in vitro. As to conditions: 3H 8-OH DPAT binding IC50, 1 nM 3H-8-OH-DPAT, rat brain minus cerebellum membranes, 37° C., 15 min. Details: 5-HT1A receptors in membranes from rat brain minus cerebellum; from tissue; host or cells: brain minus cerebellum of male Wistar (Mol:Wist) rats, crude membranes; species or system rat (male Wistar).
Description: Male Wistar (Mol:Wist) rats (125-250 g) are sacrificed and the brain is dissected and weighed. The brain tissue minus cerebellum is homogenized (Ultra Turrax, 20 sec) in 10 ml of ice cold 50 nM Tris buffer pH 8.0 (at 25° C.) containing 120 mM NaCl, 4 mM CaCl2 and 4 mM MgCl2. The homogenate is centrifuged at 20,000 g for 10 min at 4° C. The pellet is homogenized in 10 ml of buffer and incubated at 37° C. for 10 min. The homogenate is centrifuged as above and the pellet is homogenized in 100 vol (w/v) ice cold buffer containing 10 μM of pargyline.
Incubation tubes kept on ice in triplicate receive 100 μl of drug solution in water (or water for total binding) and 1000 μl of tissue suspension (final tissue content corresponds to 10 mg original tissue). […] After incubation for 15 min the samples are filtered under vacuum (0-50 mBar) through Whatman GF/F filters (25 mm). The tubes are rinsed with 5 ml ice cold 0.9% NaCl which is then poured on the filters. Thereafter, the filters are washed with 2×5 ml 0.9% NaCl. The filters are placed in counting vials and 4 ml of appropriate scintillation fluid (e.g. Picofluor™ 15) are added. After shaking for 1 h and storage 2 h in the dark the content of radioactivity is determined by liquid scintillation counting. Specific binding is obtained by subtracting the nonspecific binding in the presence of 10 μM of 5-HT.
For determination of the inhibition of binding five concentrations of drugs covering 3 decades are used.
The IC50 -value is determined as the concentration, at which the binding is 50% of the total binding in control samples minus the nonspecific binding in the presence of 10 μM of 5-HT.

For `CCCN(CCC)CC1CCc2cc(Cl)c(NC(C)=O)cc21` (single isomer, unassigned; (-)) [Compound 11b, (-)-6-Acetylamino-5-chloro-1-(N,N-dipropylaminomethyl)indan], the ED50 in assay [1] is 0.44 µmol/kg. The same compound yielded an IC50 in assay [2] of 15 nM.
Consider `CCCN(CCC)C1CCc2cccc(O)c2C1` (stereo not shown) [8-OH DPAT, 8-hydroxy-2-dipropylaminotetralin, reference compound], for which the ED50 in assay [1] stood at 0.1 µmol/kg.
With `CCCN(CCC)CC1CCc2ccc(NC=O)cc21` (stereo not shown) [Compound 1a, 1-(N,N-dipropylaminomethyl)-6-formylaminoindan], the ED50 in assay [1] is 0.0052 µmol/kg. The same compound registered an IC50 in assay [2] of 4.1 nM.
With `CN(C)CC1CCc2ccc(NC=O)cc21` (stereo not shown) [Compound 1b, 1-(N,N-dimethylaminomethyl)-6-formylaminoindan], the ED50 in assay [1] is 0.41 µmol/kg. In assay [2], this compound gave an IC50 of 110 nM.
For the compound `O=CNc1ccc2c(c1)C(CN1CCCCC1)CC2` (stereo not shown) [Compound 1c, 6-formylamino-1-(1-piperidinomethyl)indan], the ED50 in assay [1] was found to be 0.33 µmol/kg. The compound also displayed an IC50 in assay [2] of 42 nM.
In the case of `CCCN(CCC)CC1CCc2ccc(NC(C)=O)cc21` (stereo not shown) [Compound 2a, 6-Acetylamino-1-(N,N-dipropylaminomethyl)indan], the ED50 in assay [1] is 0.01 µmol/kg. This compound gave an IC50 in assay [2] of 0.89 nM.
Turning to `CC(=O)Nc1ccc2c(c1)C(CN(C)C)CC2` (stereo not shown) [Compound 2b, 6-Acetylamino-1-(N,N-dimethylaminomethyl)indan], the ED50 in assay [1] turned out to be 0.21 µmol/kg. For the same compound, the IC50 in assay [2] amounted to 25 nM.
For `CCCN(CCC)CC1CCc2ccc(NC(=O)c3ccc(F)cc3)cc21` (stereo not shown) [Compound 2c, 1-(N,N-dipropylaminomethyl)-6-(4-fluorobenzoylamino)indan], in that order: 2.2 µmol/kg and 5.1 nM.
On to `CCCN(CCC)CC1CCc2ccc(NS(C)(=O)=O)cc21` (stereo not shown) [Compound 2g, 1-(N,N-dipropylaminomethyl)-6-(methylsulphonylamino)indan], for which the ED50 in assay [1] came out at 0.93 µmol/kg. Besides, in assay [2], the IC50 came out at 16 nM.
Take `CCCN(CCC)CC1CCc2ccc(NC(=O)N(C)C)cc21` (stereo not shown) [Compound 4c, 6-(3,3-dimethyl-1-ureido)-1-(N,N-dipropylaminomethyl)indan]: the ED50 in assay [1] came to 0.42 µmol/kg. The compound also showed an IC50 in assay [2] of 10 nM.
On to `CCCN(CCC)CC1CSc2ccc(NC=O)cc21` (stereo not shown) [Compound 5a, 3-(N,N-dipropylaminomethyl)-5-formylamino-2,3-dihydrobenzothiophene], for which the median effective dose (ED50) in assay [1] is 0.046 µmol/kg. Also, the IC50 in assay [2] worked out at 3.4 nM.
Regarding `CCCN(CCC)CC1CCc2cc(Cl)c(NC(C)=O)cc21` (stereo not shown) [Compound 11a, 6-Acetylamino-5-chloro-1-(N,N-dipropylaminomethyl)indan], in assay [1], the ED50 was determined as 0.26 µmol/kg. For the same compound, the IC50 in assay [2] was determined as 21 nM.
`CC(=O)Nc1ccc2c(c1)C(CN(C)CCCCC1CCCCC1)CC2` (stereo not shown) [Compound 13a, 6-Acetylamino-1-[N-(4-cyclohexylbutan-1-yl)-N-methylaminomethyl]indan]: the ED50 in assay [1] was 0.15 µmol/kg. In assay [2], the concentration for half-maximal inhibition (IC50) amounted to 1.4 nM.
Regarding `CC(=O)Nc1ccc2c(c1)C(CN(C)CCCCc1ccccc1)CC2` (stereo not shown) [Compound 13b, 6-Acetylamino-1-[N-methyl-N-(4-phenylbutan-1-yl)aminomethyl]indan], in assay [1], the ED50 was 0.22 µmol/kg. The same compound registered an IC50 in assay [2] of 3.4 nM.
On to `CC(=O)Nc1ccc2c(c1)C(CN(C)CCCCc1c[nH]c3ccccc13)CC2` (stereo not shown) [Compound 13c, 6-Acetylamino-1-[N-[4-(indol-3-yl)butan-1-yl]-N-methylaminomethyl]indan], for which the ED50 in assay [1] turned out to be 0.66 µmol/kg. This compound gave an IC50 in assay [2] of 1.5 nM.
For the compound `CC(=O)Nc1ccc2c(c1)C(CN(C)CCCCCCN1CCN(C3CCCC3)C1=O)CC2` (stereo not shown) [Compound 13j, 6-Acetylamino-1-[N-[6-(3-cyclopentyl-2-imidazolidinon-1-yl)-1-hexyl]-N-methylaminomethyl]indan], the IC50 in assay [2] stood at 3.2 nM.
`CC(=O)Nc1ccc2c(c1)C(CN(C)CCCCN1CCNC1=O)CC2` (stereo not shown) [Compound 13k, 6-Acetylamino-1-[N-[4-(2-imidazolidinon-1-yl)-1-butyl]-N-methylaminomethyl]indan] had an IC50 in assay [2] of 790 nM.
